# Reference: ChEMBL document CHEMBL4359816, “Discovery and Optimization of Quinolinone Derivatives as Potent, Selective, and Orally Bioavailable Mutant Isocitrate Dehydrogenase 1 (mIDH1) Inhibitors” (J Med Chem, 2019)
# System: not listed separately
# Assay: Metabolic stability in mouse liver microsomes assessed as compound remaining after 30 mins
# Format: ADME, Microsome
# Conditions: read-out: Stability
row,SMILES,remaining at 0.5 h
1,CCOc1cc(NCc2cc3cc(Cl)ccc3[nH]c2=O)ccc1C#N,29%
2,N#Cc1ccc(NCc2cc3cc(Cl)ccc3[nH]c2=O)cc1OC(F)(F)F,72%
3,Cc1ccnc(NCc2cc3cc(Cl)ccc3[nH]c2=O)c1,0.6%
4,COc1ccc2[nH]c(=O)c(CNc3ccc(C#N)c(OC)c3)cc2c1,10.5%
5,COc1cc(NCc2cc3cc(Cl)c(OCc4ccccn4)cc3[nH]c2=O)ccc1C#N,73.4%
6,N#Cc1ccc(NCc2cc3cc(Cl)ccc3[nH]c2=O)cc1O,85%
7,COc1cc(NCc2cc3ccc(C)cc3[nH]c2=O)ccc1-n1cnnn1,17.8%
8,COc1cc(NCc2cc3cc(C)c(C)cc3[nH]c2=O)ccc1-n1cnnn1,27.9%
9,COc1nc(C#N)ccc1N[C@@H](C)c1cc2cc(Cl)ccc2[nH]c1=O,60%
10,Cc1nc(NC(C)(C)c2cc3cc(Cl)ccc3[nH]c2=O)ccc1C#N,67%
11,COc1cc(NCc2cc3cc(C(C)(C)C)ccc3[nH]c2=O)ccc1C#N,3.9%
12,Cc1nc(NC2(c3cc4cc(Cl)ccc4[nH]c3=O)CC2)ccc1C#N,77%
13,COc1cc(NCc2cc3cc(Br)ccc3[nH]c2=O)ccc1C#N,39%
14,N#Cc1ccc(NCc2cc3cc(Cl)ccc3[nH]c2=O)nc1C(F)(F)F,100%
15,COc1cc(NCc2cc3cc(Cl)ccc3[nH]c2=O)ccc1S(C)(=O)=O,81%
16,COc1cc(NCc2cc3cc(Cl)cc(OC)c3[nH]c2=O)ccc1C#N,3.4%
17,Cc1nc(NC(C)c2cc3cc(Cl)ccc3[nH]c2=O)ccc1C#N (racemic),96%
18,N#Cc1ccc(NCc2cc3cc(Cl)ccc3[nH]c2=O)cc1F,49%
19,Cc1nnnn1-c1ccc(NCc2cc3cc(Cl)ccc3[nH]c2=O)cc1,85%
20,Cc1cc(NCc2cc3cc(Cl)ccc3[nH]c2=O)ncc1C#N,75%
21,Cc1cc(NCc2cc3cc(Cl)ccc3[nH]c2=O)ccc1C#N,49%
22,COc1cc(NCc2cc3cc(C(F)(F)F)ccc3[nH]c2=O)ccc1C#N,89%
23,COc1cc(NCc2cc3cc(Cl)c(OCC4CCCCN4C)cc3[nH]c2=O)ccc1C#N (stereo unspecified),10.7%
24,COc1cc(NCc2cc3cc(C)ccc3[nH]c2=O)ccc1-n1cnnn1,42.3%
25,COc1cc(NCc2cc3cc(Cl)c(OCCN4CCCC4=O)cc3[nH]c2=O)ccc1C#N,14.3%
26,Cc1nc(N[C@@H](C)c2cc3cc(Cl)ccc3[nH]c2=O)ccc1C#N,94%
27,N#Cc1ccc(NCc2cc3cc(Cl)ccc3[nH]c2=O)nc1,75%
28,COc1cc(NCc2cc3cc(Cl)c(OCCN4CCOCC4)cc3[nH]c2=O)ccc1C#N,13.1%

# System: not listed separately
# Assay: Octanol/aqueous buffer partition coefficient, log D of the compound at pH 7.4
# Format: physicochemical
# Conditions: not given
row,SMILES,logD
1,COc1nc(C#N)ccc1N[C@@H](C)c1cc2cc(Cl)ccc2[nH]c1=O,2.5
2,Cc1nc(N[C@@H](C)c2cc3cc(Cl)ccc3[nH]c2=O)ccc1C#N,3.74

# Target: T1, Isocitrate dehydrogenase [NADP] cytoplasmic (Homo sapiens, UniProt O75874, R132C)
# T1 sequence (O75874 2-414 R132C limits assumed): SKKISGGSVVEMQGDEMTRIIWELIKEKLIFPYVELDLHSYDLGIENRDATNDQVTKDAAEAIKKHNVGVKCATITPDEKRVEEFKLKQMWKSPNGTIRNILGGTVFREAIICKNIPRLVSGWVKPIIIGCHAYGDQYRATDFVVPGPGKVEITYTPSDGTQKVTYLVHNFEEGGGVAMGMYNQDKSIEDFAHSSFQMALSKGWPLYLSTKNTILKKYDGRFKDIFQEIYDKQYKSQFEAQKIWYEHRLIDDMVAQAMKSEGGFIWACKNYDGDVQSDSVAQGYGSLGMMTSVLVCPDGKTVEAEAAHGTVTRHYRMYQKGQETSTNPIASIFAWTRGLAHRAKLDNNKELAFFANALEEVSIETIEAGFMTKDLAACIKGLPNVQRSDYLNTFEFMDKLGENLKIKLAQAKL
# Assay: Inhibition of human Myc-DDK-tagged IDH1 R132C mutant assessed as reduction in NADPH consumption pre-incubated for 15 mins followed by alpha-ketoglutarate substrate and NADPH addition after 45 mins by diaphorase and resazurin dye based assay
# Conditions: not given
row,SMILES,IC50
1,COc1cc(NCc2cc3cc(Cl)c(OCc4ccccn4)cc3[nH]c2=O)ccc1C#N,0.225 µM
2,COc1nc(C#N)ccc1N[C@@H](C)c1cc2cc(Cl)ccc2[nH]c1=O,1.02 µM
3,COc1cc(NCc2cc3cc(Cl)cc(OC)c3[nH]c2=O)ccc1C#N,88.6 µM
4,Cc1nc(NC(C)c2cc3cc(Cl)ccc3[nH]c2=O)ccc1C#N (racemic),0.606 µM
5,COc1cc(NCc2cc3cc(Cl)c(OCC4CCCCN4C)cc3[nH]c2=O)ccc1C#N (stereo unspecified),1.28 µM
6,COc1cc(NCc2cc3cc(Cl)c(OCCN4CCCC4=O)cc3[nH]c2=O)ccc1C#N,2.67 µM
7,Cc1nc(N[C@@H](C)c2cc3cc(Cl)ccc3[nH]c2=O)ccc1C#N,0.183 µM
8,COc1cc(NCc2cc3cc(Cl)c(OCCN4CCOCC4)cc3[nH]c2=O)ccc1C#N,0.932 µM

# System: not listed separately
# Assay: Metabolic stability in human liver microsomes assessed as compound remaining after 30 mins
# Format: ADME, Microsome
# Conditions: read-out: Stability
row,SMILES,remaining at 0.5 h
1,CCOc1cc(NCc2cc3cc(Cl)ccc3[nH]c2=O)ccc1C#N,78%
2,N#Cc1ccc(NCc2cc3cc(Cl)ccc3[nH]c2=O)cc1OC(F)(F)F,72%
3,Cc1ccnc(NCc2cc3cc(Cl)ccc3[nH]c2=O)c1,76%
4,COc1ccc2[nH]c(=O)c(CNc3ccc(C#N)c(OC)c3)cc2c1,21.6%
5,COc1cc(NCc2cc3cc(Cl)c(OCc4ccccn4)cc3[nH]c2=O)ccc1C#N,30%
6,N#Cc1ccc(NCc2cc3cc(Cl)ccc3[nH]c2=O)cc1O,75%
7,COc1cc(NCc2cc3ccc(C)cc3[nH]c2=O)ccc1-n1cnnn1,9.6%
8,COc1cc(NCc2cc3cc(C)c(C)cc3[nH]c2=O)ccc1-n1cnnn1,17.6%
9,COc1nc(C#N)ccc1N[C@@H](C)c1cc2cc(Cl)ccc2[nH]c1=O,100%
10,Cc1nc(NC(C)(C)c2cc3cc(Cl)ccc3[nH]c2=O)ccc1C#N,81%
11,COc1cc(NCc2cc3cc(C(C)(C)C)ccc3[nH]c2=O)ccc1C#N,6%
12,Cc1nc(NC2(c3cc4cc(Cl)ccc4[nH]c3=O)CC2)ccc1C#N,91%
13,COc1cc(NCc2cc3cc(Br)ccc3[nH]c2=O)ccc1C#N,89%
14,N#Cc1ccc(NCc2cc3cc(Cl)ccc3[nH]c2=O)nc1C(F)(F)F,94%
15,COc1cc(NCc2cc3cc(Cl)ccc3[nH]c2=O)ccc1S(C)(=O)=O,100%
16,COc1cc(NCc2cc3cc(Cl)cc(OC)c3[nH]c2=O)ccc1C#N,53%
17,Cc1nc(NC(C)c2cc3cc(Cl)ccc3[nH]c2=O)ccc1C#N (racemic),100%
18,N#Cc1ccc(NCc2cc3cc(Cl)ccc3[nH]c2=O)cc1F,100%
19,Cc1nnnn1-c1ccc(NCc2cc3cc(Cl)ccc3[nH]c2=O)cc1,100%
20,Cc1cc(NCc2cc3cc(Cl)ccc3[nH]c2=O)ncc1C#N,99%
21,Cc1cc(NCc2cc3cc(Cl)ccc3[nH]c2=O)ccc1C#N,75%
22,COc1cc(NCc2cc3cc(C(F)(F)F)ccc3[nH]c2=O)ccc1C#N,76%
23,COc1cc(NCc2cc3cc(Cl)c(OCC4CCCCN4C)cc3[nH]c2=O)ccc1C#N (stereo unspecified),0%
24,COc1cc(NCc2cc3cc(C)ccc3[nH]c2=O)ccc1-n1cnnn1,30.8%
25,COc1cc(NCc2cc3cc(Cl)c(OCCN4CCCC4=O)cc3[nH]c2=O)ccc1C#N,2.5%
26,Cc1nc(N[C@@H](C)c2cc3cc(Cl)ccc3[nH]c2=O)ccc1C#N,98%
27,N#Cc1ccc(NCc2cc3cc(Cl)ccc3[nH]c2=O)nc1,91%
28,COc1cc(NCc2cc3cc(Cl)c(OCCN4CCOCC4)cc3[nH]c2=O)ccc1C#N,1.1%

# System: not listed separately
# Assay: Kinetic solubility of the compound
# Format: physicochemical
# Conditions: read-out: Kinetic_solubility
row,SMILES,solubility kinetic
1,CCOc1cc(NCc2cc3cc(Cl)ccc3[nH]c2=O)ccc1C#N,< 0.1 µM
2,N#Cc1ccc(NCc2cc3cc(Cl)ccc3[nH]c2=O)cc1OC(F)(F)F,< 0.1 µM
3,Cc1ccnc(NCc2cc3cc(Cl)ccc3[nH]c2=O)c1,0.88 µM
4,COc1ccc2[nH]c(=O)c(CNc3ccc(C#N)c(OC)c3)cc2c1,0.67 µM
5,COc1cc(NCc2cc3cc(Cl)c(OCc4ccccn4)cc3[nH]c2=O)ccc1C#N,< 0.1 µM
6,N#Cc1ccc(NCc2cc3cc(Cl)ccc3[nH]c2=O)cc1O,20.9 µM
7,COc1cc(NCc2cc3ccc(C)cc3[nH]c2=O)ccc1-n1cnnn1,< 0.01 µM
8,COc1cc(NCc2cc3cc(C)c(C)cc3[nH]c2=O)ccc1-n1cnnn1,0.04 µM
9,COc1nc(C#N)ccc1N[C@@H](C)c1cc2cc(Cl)ccc2[nH]c1=O,4.8 µM
10,Cc1nc(NC(C)(C)c2cc3cc(Cl)ccc3[nH]c2=O)ccc1C#N,< 0.1 µM
11,COc1cc(NCc2cc3cc(C(C)(C)C)ccc3[nH]c2=O)ccc1C#N,< 0.1 µM
12,Cc1nc(NC2(c3cc4cc(Cl)ccc4[nH]c3=O)CC2)ccc1C#N,< 0.1 µM
13,COc1cc(NCc2cc3cc(Br)ccc3[nH]c2=O)ccc1C#N,0.18 µM
14,N#Cc1ccc(NCc2cc3cc(Cl)ccc3[nH]c2=O)nc1C(F)(F)F,< 0.1 µM
15,COc1cc(NCc2cc3cc(Cl)ccc3[nH]c2=O)ccc1S(C)(=O)=O,32.5 µM
16,COc1cc(NCc2cc3cc(Cl)cc(OC)c3[nH]c2=O)ccc1C#N,< 0.1 µM
17,Cc1nc(NC(C)c2cc3cc(Cl)ccc3[nH]c2=O)ccc1C#N (racemic),12.2 µM
18,N#Cc1ccc(NCc2cc3cc(Cl)ccc3[nH]c2=O)cc1F,< 0.1 µM
19,Cc1nnnn1-c1ccc(NCc2cc3cc(Cl)ccc3[nH]c2=O)cc1,1.2 µM
20,Cc1cc(NCc2cc3cc(Cl)ccc3[nH]c2=O)ncc1C#N,0.8 µM
21,Cc1cc(NCc2cc3cc(Cl)ccc3[nH]c2=O)ccc1C#N,< 0.1 µM
22,COc1cc(NCc2cc3cc(C(F)(F)F)ccc3[nH]c2=O)ccc1C#N,< 0.1 µM
23,COc1cc(NCc2cc3cc(Cl)c(OCC4CCCCN4C)cc3[nH]c2=O)ccc1C#N (stereo unspecified),1.35 µM
24,COc1cc(NCc2cc3cc(C)ccc3[nH]c2=O)ccc1-n1cnnn1,< 0.01 µM
25,COc1cc(NCc2cc3cc(Cl)c(OCCN4CCCC4=O)cc3[nH]c2=O)ccc1C#N,0.53 µM
26,Cc1nc(N[C@@H](C)c2cc3cc(Cl)ccc3[nH]c2=O)ccc1C#N,5.7 µM
27,N#Cc1ccc(NCc2cc3cc(Cl)ccc3[nH]c2=O)nc1,0.42 µM
28,COc1cc(NCc2cc3cc(Cl)c(OCCN4CCOCC4)cc3[nH]c2=O)ccc1C#N,0.385 µM

# Target: T1, Isocitrate dehydrogenase [NADP] cytoplasmic
# Assay: Inhibition of IDH1 R132C mutant in human HCT116 cells assessed as reduction in 2-HG levels after 24 hrs by RapidFire high-throughput mass spectrometry assay
# Format: cell-based
# Conditions: not given
row,SMILES,IC50
1,COc1nc(C#N)ccc1N[C@@H](C)c1cc2cc(Cl)ccc2[nH]c1=O,0.338 µM
2,Cc1nc(N[C@@H](C)c2cc3cc(Cl)ccc3[nH]c2=O)ccc1C#N,0.269 µM
